Laboratory results from patent US20250205199A1, “5-METHOXY-N,N-[…][…] THE TREATMENT OF SOCIAL/EMOTIONAL […] DETACHMENT” (GH RESEARCH IRELAND LIMITED, priority 2022, published 2025).

What was measured:
[1] = Pharmacokinetics of 5-MeO-DMT and bufotenine after inhalation; type: in vivo, human; details: for Plasma concentration as % of Cmax: whole dose range tested (6 mg, 12 mg, 18 mg)
Experimental: This applies over the whole dose range tested (6 mg, 12 mg, 18 mg). […] Uptitration as disclosed herein will not lead to accumulation and thus not to higher plasma concentrations, for instance, 10 minutes, 2 hours, or 3 hours after administration.
Blood samples were obtained at 1; 2; 4; 7; 10; 15; 20; 30; 45 min and 1; 1.5; 2; 3; 4 hours after administration.
PK parameters were generated by algebraic analysis of the concentration versus time plots for each individual. The analysis was carried out using the software Phoenix WinNonlin 6.3.

[2] = test system: patients with treatment-resistant major depressive disorder (TRD); assay: Phase 1/2 clinical trial of inhaled 5-MeO-DMT in patients with TRD
Experimental: Patients were assigned to different groups. In the context of the present invention, the group who received a single, 12 mg dose and the group who underwent an intra-day individualized dosing regimen (IDR) that allowed for multiple, escalating doses (6 mg, 12 mg and 18 mg) within a single day, driven by the intensity of the patient-reported psychedelic experience are of interest.
The data gathered include the assessment of the treated patients against several scales including the Montgomery-Åsberg Depression Rating Scale (MADRS) and the Brief Psychiatric Rating Scale (BPRS).
This trial was designed in two parts. Part A was an open-label, single-arm, single-dose Phase 1 trial with two dose levels (12 mg (n=4) and 18 mg (n=4)). […] The primary endpoint of Part B was to assess the effects on the severity of depression, as assessed by the proportion of patients in remission on day seven after dosing, defined as a MADRS total score of less than or equal to 10.

[3] = test system: patients with postpartum depression (PPD); assay: Clinical trial of inhaled 5-MeO-DMT in postpartum depression (one patient so far)
Experimental: The single-arm, open-label clinical trial will involve 15 adult female patients with clinically diagnosed postpartum depression (PPD).
The second dose (12 mg) will only be administered if: • a. […] The 6 mg dose was safe and well-tolerated according to the investigator, • c. Any psychoactive effects (PsE) of the prior dose have subsided, and • d. Pre-dose vital parameters and forced expiratory volume in one second (FEV1) are in normal range, or if outside of the normal range, are not clinically significant according to the investigator. • 3. Similarly, a third dose (18 mg) will only be administered if: • a. […] The 12 mg dose was safe and well-tolerated according to the investigator, and • c. Any PsE of the prior dose have subsided, and • d. Pre-dose vital parameters and forced expiratory volume in one second (FEV1) are in normal range, or if outside of the normal range, are not clinically significant according to the investigator.
The patients will be assessed for a peak psychedelic experience (based on a patient-scored visual analogue scale, the PE scale), sedation, and other endpoints after dosing. Follow-up visits are planned for Day 1, and Day 7 after the dosing day.
The following criteria must be met by all patients considered for clinical trial participation: • 1. Is female and in the age range between 18 and 45 years (inclusive) at screening. • 2. Has a body mass index (BMI) in the range of 18.5 and 35 kg/m^2 (inclusive) at screening. • 3. Meets the trial criteria for PPD as assessed by a trial psychiatrist or registered psychologist: • a. Diagnosis of Major Depressive Disorder without psychotic features, confirmed by the Mini-International Neuropsychiatric Interview (MINI), with peri-partum onset that began no earlier than gestation and no later than the first 4 weeks postpartum. • b. Has a Montgomery-Åsberg Depression Rating Scale (MADRS) total score of equal to or greater than 28 at screening and pre-dose on Day 0. • 6. […] Patients must have a negative pregnancy test at screening and on the pre-test day (Day −1). • 5. Is willing to delay start of other antidepressant or anxiety medication until after the end of the trial at Day 7 and agrees to keep any psychotherapy unchanged during the trial.
A potential patient who meets any of the following key exclusion criteria will be excluded from participation in this trial: • 1. Has, based on history, psychiatric assessment, and evaluation of the MINI, a current or prior diagnosis of bipolar disorder, a manic or hypomanic episode, a psychotic disorder, Major Depressive Disorder (MDD) or other mood disorder with psychotic features, obsessive compulsive disorder, post-traumatic stress disorder (PTSD), autism spectrum disorder, borderline personality disorder, schizophrenia, delusional disorder, paranoid personality disorder, schizoaffective disorder, clinically significant intellectual disability, or any other psychiatric comorbidity that renders the patient unsuitable for the trial according to the investigator's judgment. • 2. Has one or more first or second degree relatives with a current or previously diagnosed bipolar disorder, psychotic disorder or other mood disorder (including MDD) with psychotic features. • 3. Is in the judgement of a trial psychiatrist or registered psychologist, at significant risk for suicide based on history, psychiatric assessment, and evaluation of suicidal ideation and suicidal behaviour based on the Columbia-Suicide Severity Rating Scale (C-SSRS). • 4. Has taken anti-depressive medication within 14 days or 5 half-lives (whichever is longer) prior to dosing (exception: within the last 5 weeks in the case of fluoxetine). • 5.

[4] = oral; cited from earlier work
[5] = test system: patients with treatment resistant bipolar depression; details: single 0.5 mg·kg^−1 infusion; cited from earlier work
[6] = 12 mg n=4, 2 hours after dose, baseline 16

SMILES: COc1ccc2[nH]cc(CCN(C)C)c2c1 [5-MeO-DMT]
- Plasma concentration as % of Cmax ([1]; 10 minutes after inhalation): ≤ 10%
- Plasma concentration as % of Cmax ([1]; 2 hours after inhalation): ≤ 1%
- Detectability in the plasma ([1]; 3 hours after inhalation, whole dose range tested): no longer detectable
- Pharmacokinetic measurements under uptitration dosing schemes versus single doses ([1]; dosing schemes relying on uptitration): Substantially similar results
- MADRS Suicidal Thoughts improvement ([2]; 12 mg n=4, 2 hours after dose, baseline 8): 5 points
- MADRS Inner Tension improvement ([2]; 12 mg n=4, 2 hours after dose, baseline 13): 11
- MADRS Concentration Difficulties improvement [2, 6]: 9
- MADRS Inability to Feel improvement [2, 6]: 7 points
- MADRS Lassitude improvement [2, 6]: 6
- MADRS Pessimistic Thoughts improvement [2, 6]: 8
- BPRS Blunted Affect improvement ([2]; 12 mg n=4, 3 hours after dose, baseline 11): 3 points
- BPRS Emotional Withdrawal improvement ([2]; 12 mg n=4, 3 hours after dose, baseline 13): 2 points
- BPRS Tension improvement ([2]; 12 mg n=4, 3 hours after dose, baseline 14): 5
- BPRS Guilt Feelings improvement ([2]; 12 mg n=4, 3 hours after dose, baseline 18): 9
- BPRS Anxiety improvement ([2]; 12 mg n=4, 3 hours after dose, baseline 25): 14
- MADRS Inner Tension improvement ([2]; 12 mg n=4, day 1, baseline 13): 10
- BPRS Tension improvement ([2]; 12 mg n=4, day 1, baseline 14): 8
- MADRS Concentration Difficulties improvement ([2]; 12 mg n=4, day 1, baseline 16): 14
- MADRS Lassitude improvement ([2]; 12 mg n=4, day 1, baseline 16): 16
- MADRS Pessimistic Thoughts improvement ([2]; 12 mg n=4, day 1, baseline 16): 9
- BPRS Guilt Feelings improvement ([2]; 12 mg n=4, day 1, baseline 18): 13
- BPRS Anxiety improvement ([2]; 12 mg n=4, day 1, baseline 25): 19
- MADRS Reduced Sleep percentage improvement ([2]; 12 mg n=4, day 7, baseline 12): 50.00%
- MADRS Inner Tension improvement ([2]; 12 mg n=4, day 7, baseline 13): 8
- BPRS Tension improvement ([2]; 12 mg n=4, day 7, baseline 14): 8
- MADRS Concentration Difficulties improvement ([2]; 12 mg n=4, day 7, baseline 16): 13
- MADRS Lassitude improvement ([2]; 12 mg n=4, day 7, baseline 16): 13
- MADRS Pessimistic Thoughts improvement ([2]; 12 mg n=4, day 7, baseline 16): 8
- BPRS Guilt Feelings improvement ([2]; 12 mg n=4, day 7, baseline 18): 13
- BPRS Anxiety improvement ([2]; 12 mg n=4, day 7, baseline 25): 19
- MADRS Suicidal Thoughts improvement ([2]; IDR n=8, 2 hours after last dose, baseline 11): 8 points
- MADRS Inner Tension improvement ([2]; IDR n=8, 2 hours after last dose, baseline 26): 15
- MADRS Lassitude improvement ([2]; IDR n=8, 2 hours after last dose, baseline 27): 17
- MADRS Pessimistic Thoughts improvement ([2]; IDR n=8, 2 hours after last dose, baseline 28): 21
- MADRS Concentration Difficulties improvement ([2]; IDR n=8, 2 hours after last dose, baseline 30): 19
- MADRS Inability to Feel improvement ([2]; IDR n=8, 2 hours after last dose, baseline 36): 24 points
- BPRS Emotional Withdrawal improvement ([2]; IDR n=8, 3 hours after last dose, baseline 13): 5 points
- BPRS Blunted Affect improvement ([2]; IDR n=8, 3 hours after last dose, baseline 15): 4 points
- BPRS Tension improvement ([2]; IDR n=8, 3 hours after last dose, baseline 16): 5
- BPRS Guilt Feelings improvement ([2]; IDR n=8, 3 hours after last dose, baseline 34): 20
- BPRS Anxiety improvement ([2]; IDR n=8, 3 hours after last dose, baseline 37): 18
- BPRS Tension improvement ([2]; IDR n=8, day 1, baseline 16): 5
- MADRS Reduced Sleep percentage improvement ([2]; IDR n=8, day 1, baseline 25): 52.00%
- MADRS Inner Tension improvement ([2]; IDR n=8, day 1, baseline 26): 20
- MADRS Lassitude improvement ([2]; IDR n=8, day 1, baseline 27): 22
- MADRS Pessimistic Thoughts improvement ([2]; IDR n=8, day 1, baseline 28): 24
- MADRS Concentration Difficulties improvement ([2]; IDR n=8, day 1, baseline 30): 29
- BPRS Guilt Feelings improvement ([2]; IDR n=8, day 1, baseline 34): 23
- BPRS Anxiety improvement ([2]; IDR n=8, day 1, baseline 37): 21
- BPRS Tension improvement ([2]; IDR n=8, day 7, baseline 16): 6
- MADRS Reduced Sleep percentage improvement ([2]; IDR n=8, day 7, baseline 25): 64.00%
- MADRS Inner Tension improvement ([2]; IDR n=8, day 7, baseline 26): 14
- MADRS Lassitude improvement ([2]; IDR n=8, day 7, baseline 27): 24
- MADRS Pessimistic Thoughts improvement ([2]; IDR n=8, day 7, baseline 28): 25
- MADRS Concentration Difficulties improvement ([2]; IDR n=8, day 7, baseline 30): 21
- BPRS Guilt Feelings improvement ([2]; IDR n=8, day 7, baseline 34): 24
- BPRS Anxiety improvement ([2]; IDR n=8, day 7, baseline 37): 20
- SAEs ([2]; Part A): No SAEs
- Patients with MADRS remission (total score <=10) ([2]; Part A, 12 mg n=4, day seven): 50%
- Mean MADRS change from baseline ([2]; Part A, 12 mg, day seven): −21.0
- Mean MADRS change from baseline, percent ([2]; Part A, 12 mg, day seven): −65%
- Patients with MADRS remission (total score <=10) ([2]; Part A, 18 mg n=4, day seven): 25%
- Mean MADRS change from baseline, percent ([2]; Part A, 18 mg, day seven): −41%
- ECG (3 hours), safety laboratory analyses (7 days), CADSS (3 hours, 1 day, 7 days) [3]: unremarkable
- Reported adverse events (cramping left abdominal pain and headache, Day 0) [3]: mild, short-lasting and resolved spontaneously
- Tolerability of the inhalation procedure [3]: well tolerated with no inhalation-related adverse events
- Total MADRS improvement ([3]; 2 hr, baseline 29): 24
- Total MADRS score ([3]; 2 hr, baseline 29): 5
- BPRS Tension improvement ([3]; Day 1, baseline 6): 5
- Total MADRS improvement ([3]; Day 1, baseline 29): 29
- Total MADRS score ([3]; Day 1, baseline 29): 0
- BIMF item 16 (I worry about how other people judge me (as a mother)) score ([3]; Day 7, Day 0 score 3): 5
- BIMF item 11 (I take a little time each week to do something for myself) score ([3]; Day 7, Day 0 score 5): 6
- BIMF functional domain Adjustment score ([3]; Day 7, Day 0 score 5, maximum possible 12): 6
- BIMF functional domain Self-Care score ([3]; Day 7, Day 0 score 9, maximum possible 18): 13
- BIMF functional domain Infant Care score ([3]; Day 7, Day 0 score 12, maximum possible 12): 12
- BIMF functional domain Mother-Child Interaction score ([3]; Day 7, Day 0 score 15, maximum possible 18): 17
- BIMF functional domain Social Support score ([3]; Day 7, Day 0 score 17, maximum possible 18): 18
- BIMF functional domain Management score ([3]; Day 7, Day 0 score 28, maximum possible 36): 33
- BIMF functional domain Psychological Well-being score ([3]; Day 7, Day 0 score 44, maximum possible 60): 53
- Total MADRS improvement ([3]; Day 7, baseline 29): 28
- Total MADRS score ([3]; Day 7, baseline 29): 1
- BIMF total score improvement ([3]; Day 7, from 92 to 105 of possible 120): 14%
- BIMF TOTAL Δ (Day 7) ([3]; Day 7 vs Day 0): 13
- BIMF functional domain Adjustment % Improvement ([3]; Day 7 vs Day 0): 20.00%
- BIMF functional domain Infant Care % Improvement ([3]; Day 7 vs Day 0): 0.00%
- BIMF functional domain Management % Improvement ([3]; Day 7 vs Day 0): 18%
- BIMF functional domain Self-Care % Improvement ([3]; Day 7 vs Day 0): 44%
- BPRS Tension improvement ([3]; Discharge, baseline 6): 5
- Standard criteria for MADRS response (at least 50% improvement) and MADRS remission (total score <=10) ([3]; IDR 6 mg then 12 mg): fulfilled
- Time to clinical remission after administration ([3]; IDR 6 mg then 12 mg): ≤ 2 h
- Changes in vital parameters ([3]; except temporary, clinically non-relevant increase in heart rate and blood pressure shortly after administration): no other noteworthy changes in vital parameters

SMILES: CCN(CC)C(=O)[C@@H]1C=C2c3cccc4[nH]cc(c34)C[C@H]2N(C)C1 [LSD, lysergic acid diethylamide]
- Duration of acute psychedelic effects [4]: several hours

SMILES: CN(C)CCc1c[nH]c2ccc(O)cc12 [bufotenine]
- Bufotenine concentrations when subjects receiving an uptitration scheme were included ([1]; uptitration scheme): Substantially similar observations

SMILES: CNC1(c2ccccc2Cl)CCCCC1=O (stereo not drawn) [ketamine]
- Duration of the anti-anhedonic effect [5]: up to 14 days
- Time until decrease of anhedonia took effect [5]: ≤ 40 min
